Paper PMC3435245, “D-Alanylation of Lipoteichoic Acids Confers Resistance to Cationic Peptides in Group B Streptococcus by Increasing the Cell Wall Density” (PLoS Pathogens, 2012)
≈ marks a conversion by molar mass, not a printed value. Where a SMILES comes first, the peptide text is derived from it. [ ]: non-standard residue; d: D form.

Tests used:
GBS NEM316 WT strain = assay type: cell-based, Streptococcus agalactiae; conditions: Todd-Hewitt broth with 100 mM HEPES, 2×10^6 CFU, 96-well polypropylene microplate, overnight 37°C, OD600 nm; average of triplicate measurements
Protocol: (§1) The MICs of each antimicrobial peptide were tested in Todd-Hewitt broth (THB) buffered with 100 mM HEPES in 96-well polypropylene microplates (Costar, Cambridge, MA) by a dilution method. Bacteria (2×10^6 CFU) were added in triplicates to wells containing increasing concentrations of the antimicrobial peptides. Plates were incubated at 37°C with shaking overnight and then read (OD600 nm) using microplate reader (Labsystems Multiskanat) for bacterial growth. The MICs90 was considered to be the peptide concentration that inhibited 90% growth.

GBS WT and dltA strains = assay: SYTOX green uptake assay (membrane perforation); assay type: cell-based, Streptococcus agalactiae; conditions: 30 min exposure, 1 µM SYTOX green, sodium phosphate buffer 20 mM pH 7.4, excitation 485 nm, emission 520 nm; triplicates
Excerpt: To determine whether altered susceptibility to CAMPs correlates with changes in membrane permeability, we measured the entrance of the cationic dye SYTOX green into the WT and dltA strains. SYTOX green cannot enter intact bacteria unless the membrane is disrupted by external compounds. Upon penetration into bacteria and binding to intracellular nucleic acids, its signal increases drastically. A dose-dependent enhancement of signal intensity was found following exposure to selected CAMPs.
Figure 2 Susceptibility of GBS strains to perforation by CAMPs. Peptide-dependent influx of the vital dye SYTOX green following 30 min exposure of GBS to magainin 2 (A), LL-37 (B), 5D-K6L9 (C) and K5L7 (D). Solid lines represent the WT strain whereas dashed lines represent the dltA muatnt. All readings were normalized by subtracting the basal fluorescence of the dye. Data are means ± SD of triplicate measurements.
Bacteria were washed twice, resuspended in sodium phosphate buffer (SPB, 20 mM, pH 7.4), and incubated with 1 µM SYTOX green for 20 min in the dark with agitation. Bacteria were added to a 96 well black plate (Nunc, Denmark) containing increasing concentrations of CAMPs and the increase in fluorescence, due to penetration and binding of the dye to intracellular DNA, was immediately monitored (excitation of 485 nm and emission of 520 nm). […]

GBS Δlgt Δlsp mutant = assay: MIC90 by dilution method, GBS Δlgt Δlsp; assay type: cell-based, Streptococcus agalactiae; conditions: Todd-Hewitt broth with 100 mM HEPES, 2×10^6 CFU, 96-well polypropylene microplate, overnight 37°C, OD600 nm; average of triplicate measurements
Protocol: as §1

GBS ΔdltA mutant = assay: MIC90 by dilution method, GBS ΔdltA; assay type: cell-based, Streptococcus agalactiae; conditions: Todd-Hewitt broth with 100 mM HEPES, 2×10^6 CFU, 96-well polypropylene microplate, overnight 37°C, OD600 nm; average of triplicate measurements
Protocol: as §1

[1] = RP-HPLC hydrophobicity (% AcN at elution); assay type: physicochemical; conditions: chromatographic, C4 reverse analytical column; eluted in 40 min, linear gradient of acetonitrile 30 to 70% v/v in water containing TFA (0.05% v/v)
Protocol: The procedure conducted as described previously. Briefly, peptides were synthesized using the Fmoc solid phase method on Rink amide resin ([…]). For fluorescent labeling of the N-terminus of the peptides, resin-bound peptides were treated with NBD or rhodamine dissolved in dimethyl formamide (DMF), washed thoroughly with DMF and then with methylene chloride, dried and then cleaved. […] The peptides were subjected to amino acid and mass spectrometry analysis to confirm their composition.

GBS ΔcpsD mutant = assay: MIC90 by dilution method, GBS ΔcpsD; assay type: cell-based, Streptococcus agalactiae; conditions: Todd-Hewitt broth with 100 mM HEPES, 2×10^6 CFU, 96-well polypropylene microplate, overnight 37°C, OD600 nm; average of triplicate measurements
Protocol: as §1

GBS ΔsrtA mutant = assay: MIC90 by dilution method, GBS ΔsrtA; assay type: cell-based, Streptococcus agalactiae; conditions: Todd-Hewitt broth with 100 mM HEPES, 2×10^6 CFU, 96-well polypropylene microplate, overnight 37°C, OD600 nm; average of triplicate measurements
Protocol: as §1

GBS ΔmprF mutant = assay: MIC90 by dilution method, GBS ΔmprF; assay type: cell-based, Streptococcus agalactiae; conditions: Todd-Hewitt broth with 100 mM HEPES, 2×10^6 CFU, 96-well polypropylene microplate, overnight 37°C, OD600 nm; average of triplicate measurements
Protocol: as §1

## CC(C)C[C@H](NC(=O)[C@H](CC(C)C)NC(=O)[C@@H](CCCCN)NC(=O)[C@H](CC(C)C)NC(=O)[C@H](CC(C)C)NC(=O)[C@H](CCCCN)NC(=O)[C@@H](CCCCN)NC(=O)[C@@H](CC(C)C)NC(=O)[C@H](CC(C)C)NC(=O)[C@@H](CCCCN)NC(=O)[C@H](CCCCN)NC(=O)[C@H](CC(C)C)NC(=O)[C@@H](CC(C)C)NC(=O)[C@H](CCCCN)NC(=O)[C@@H](N)CC(C)C)C(N)=O [5D-K6L9] (H-LK[dL]LK[dK]L[dL][dK]KLL[dK]LL-NH2; N-terminus assumed)
GBS NEM316 WT strain
  MIC90, WT: 4.4 µM (≈ 7.94 µg/mL)
GBS WT and dltA strains
  SYTOX green influx signal, dltA mutant compared to WT: similarly active on both strains
GBS Δlgt Δlsp mutant
  MIC90, Δlgt Δlsp: 4.4 µM (≈ 7.94 µg/mL)
GBS ΔdltA mutant
  MIC90, ΔdltA: 2.2 µM (≈ 3.97 µg/mL)
[1]
  Hydrophobicity (% AcN): 55.6 % AcN
GBS ΔcpsD mutant
  MIC90, ΔcpsD: 4.4 µM (≈ 7.94 µg/mL)
GBS ΔsrtA mutant
  MIC90, ΔsrtA: 4.4 µM (≈ 7.94 µg/mL)
GBS ΔmprF mutant
  MIC90, ΔmprF: 4.4 µM (≈ 7.94 µg/mL)
